Assay results published in US20080262084A1, “Stable Emulsion Compositions for Intravenous Administration Having Preservatie Efficacy” (priority 2004, published 2008).

How the values were obtained:
Swiss Albino Mice = assay: Safety study with Monolaurin, daily intravenous administration for 7 days (Example XII); conditions: Monolaurin group versus EDTA group
Procedure: Compositions of Example IX, X and M were studied along with 5% Dextrose Injection as control.
The objective of this study was to access the safety of Monolaurin as such and in comparison with EDTA when administered into mice by an intravenous route.
Forty healthy Swiss albino mice weighing on an average 20-22 g were used in this study.
Toxicity was determined after administration of study materials.
Data was recorded as Mean +SD and median values for histopathological data.
Student's paired t-test was used to compare basal and final values of the parametric data within the same group and Student's unpaired t-test was used to compare values between two different groups. A ‘p’ value of <0.05 was considered as significant.
All experimental animals were observed daily for seven days for following parameters:
Each animal was weighed before the administration of study material and daily during the treatment period.

[1] = tested on: broad spectrum microbial growth; conditions: Edetate at concentrations of 0.0025% and below; cited from earlier work
[2] = tested on: Candida albicans ATCC 10231, Pseudomonas aeruginosa ATCC 9027, Escherichia coli ATCC 8739 and Staphylococcus aureus ATCC 6538; assay: Preservative efficacy, overall result on the four standard U.S.P. organisms; assay type: cell-based; conditions: Monolaurin at 0.01% w/v in the emulsion, organisms tested
Procedure: The said aliquots were incubated at a temperature of 20-25° C. for fungal culture and 30 to 35° C. for bacterial culture as recommended under “Antimicrobial effectiveness testing” in United States Pharmacopeia, Chapter 51 (U.S.P. <51>).
(for fungal cultures) and 32° C.±2° C. (for bacterial cultures). The viable counts of the test organisms were determined after 24 hours and 48 hours.

rats = conditions: administered orally; cited from earlier work
[3] = cited from earlier work

Row | Compound | Histopathological data (Swiss Albino Mice) | preventing a no more than 10 fold increase in broad spectrum microbial growth [1] | effectiveness as preservative (preventing a growth of not more than 10 fold) [2] | LD50 (rats) | solubility in aqueous media ([3]; aqueous media) | solubility in fat solvents ([3]; chloroform, benzene, ethanol, or acetone)
1 | O=C([O-])CN(CCN(CC(=O)[O-])CC(=O)O)CC(=O)O.[Na+].[Na+] [EDTA, Disodium edetate, reference compound] | compare well | ineffective |  |  |  | 
2 | CCCCCCCCCCCC(=O)OCC(O)CO (stereo not shown) [Monolaurin] | compare well |  | effective as a preservative | about 53,000 mg/kg body weight | insoluble | highly soluble
